Test results taken from patent US10501459B2, “Substituted imidazo[1,2-a]pyridines as bromodomain inhibitors” (NEOMED Institute, priority 2015, dated 2019).
pIC50: −log10 of the molar value.

System: human C-Myc gene transcription in MV-4-11 cells
Assay: Transcription of human C-Myc in human leukemic MV-4-11 cells (QuantiGene 2.0)
Type: cell-based
Details: inhibition of C-Myc mRNA, 4 hours treatment
Procedure: b) Transcription of Human C-Myc in Human Leukemic MV-4-11 Cells:
The effect of compounds on transcription of human C-Myc gene is monitored in human B-myelomonocytic leukemia cell line MV-4-11 (from American Type Culture Collection (ATCC), Manassas, Va., USA) using QuantiGene 2.0 assay kit (Affymetrix, Santa Clara, Calif., USA).
Typically, 8,000 MV-4-11 cells are plated in sterile 96-well plates (Costar #3598 from Fisher Scientific Canada, Ottawa, Ontario, Canada) in Iscove's medium supplemented with 10% fetal bovine serum, glutamine (2 mM), and penicillin (100 I.U.) and streptomycin (100 μg/mL) (all from Wisent Inc., St. Bruno, Quebec, Canada). Compounds are dissolved in DMSO at 30 mM. A series of 1:3 dilutions are first made in DMSO, and further […] dilutions are made in serum-containing cell culture media. The final concentration of DMSO is […] in cell culture media. After cells are treated with various concentrations of test compound for 4 hours, cells are lysed using Quantigene 2.0 sample processing kit (#QS0100). C-Myc mRNA is detected using a QuantiGene 2.0 assay kit (#QS0009) with gene-specific probe to human C-Myc (#SA-50182) following the manufacturer's recommendations. Luminescene signals are read on Flexstation II microplate reader (Molecular Devices, Sunnyvale, Calif., USA). Percentage of inhibition of C-Myc transcription is analyzed using EXCEL (2010 version).

| SMILES | pIC50 (Homo sapiens, MV4-11, 4 h) | pIC50 |
| --- | --- | --- |
| Cc1cc(-c2ccc3ncc(S(=O)(=O)N4CCC[C@H]4C)n3c2)cn(C)c1=O [Compound 45, (R)-1,3-dimethyl-5-(3-((2-methylpyrrolidin-1-yl)sulfonyl)imidazo[1,2-a]pyridin-6-yl)pyridin-2(1H)-one] | 6.29 |  |
| Cc1cc(-c2ccc3ncc(S(=O)(=O)NC4CCOCC4)n3c2)cn(C)c1=O [Compound 42, 6-(1,5-dimethyl-6-oxo-1,6-dihydropyridin-3-yl)-N-(tetrahydro-2H-pyran-4-yl)imidazo[1,2-a]pyridine-3-sulfonamide] | 6.06 |  |
| Cc1cc(-c2ccc3ncc(S(=O)(=O)N4CCCCC4)n3c2)cn(C)c1=O [Compound 14, 1,3-dimethyl-5-(3-(piperidin-1-ylsulfonyl)imidazo[1,2-a]pyridin-6-yl)pyridin-2(1H)-one] | 6.29 |  |
| Cc1cc(-c2ccc3ncc(S(=O)(=O)NC4CCCOC4)n3c2)cn(C)c1=O (centres unmarked) [Compound 43, 6-(1,5-dimethyl-6-oxo-1,6-dihydropyridin-3-yl)-N-(tetrahydro-2H-pyran-3-yl)imidazo[1,2-a]pyridine-3-sulfonamide] |  | 6.60 |
| Cc1cc(-c2ccc3ncc(S(=O)(=O)NC4CCCCC4)n3c2)cn(C)c1=O [Compound 18, N-cyclohexyl-6-(1,5-dimethyl-6-oxo-1,6-dihydropyridin-3-yl)imidazo[1,2-a]pyridine-3-sulfonamide] | 7.03 |  |
| Cc1cc(-c2ccc3ncc(CN4CCC(F)(F)CC4)n3c2)cn(C)c1=O [Compound 20, 5-[3-[(4,4-difluoro-1-piperidyl)methyl]imidazo[1,2-a]pyridin-6-yl]-1,3-dimethyl-pyridin-2-one] | 6.95 |  |
| Cc1cc(-c2ccc3ncc(S(=O)(=O)N4CCC[C@@H]4C)n3c2)cn(C)c1=O [Compound 46, (S)-1,3-dimethyl-5-(3-((2-methylpyrrolidin-1-yl)sulfonyl)imidazo[1,2-a]pyridin-6-yl)pyridin-2(1H)-one] | 6.75 |  |
| Cc1cc(-c2ccc3ncc(CN4CCOCC4)n3c2)cn(C)c1=O [Compound 21, 1,3-dimethyl-5-[3-(morpholinomethyl)imidazo[1,2-a]pyridin-6-yl]pyridin-2-one] | 6.09 |  |
| Cc1cc(-c2ccc3ncc(S(=O)(=O)NC4CCOC4)n3c2)cn(C)c1=O (single isomer, unassigned) [Compound 53, 6-(1,5-dimethyl-6-oxo-1,6-dihydropyridin-3-yl)-N-(tetrahydrofuran-3-yl) imidazo[1,2-a]pyridine-3-sulfonamide] |  | 6.05 |
| Cc1cc(-c2ccc3ncc(S(=O)(=O)N(C)C4CCOC4)n3c2)cn(C)c1=O (single isomer, unassigned) [Compound 47, 6-(1,5-dimethyl-6-oxo-1,6-dihydropyridin-3-yl)-N-methyl-N-(tetrahydrofuran-3-yl)imidazo[1,2-a]pyridine-3-sulfonamide] | 6.14 |  |
| Cc1cc(-c2ccc3ncc(COC4CCC4)n3c2)cn(C)c1=O [Compound 25, 5-[3-(cyclobutoxymethyl)imidazo[1,2-a]pyridin-6-yl]-1,3-dimethyl-pyridin-2-one] | 6.76 |  |
| Cc1cc(-c2ccc3ncc(S(=O)(=O)NC4CCCOC4)n3c2)cn(C)c1=O (centres unmarked) [Compound 44, 6-(1,5-dimethyl-6-oxo-1,6-dihydropyridin-3-yl)-N-(tetrahydro-2H-pyran-3-yl)imidazo[1,2-a]pyridine-3-sulfonamide] |  | 6.22 |
| Cc1cc(-c2ccc3ncc(S(=O)(=O)NC4CCOC4)n3c2)cn(C)c1=O (single isomer, unassigned) [Compound 52, 6-(1,5-dimethyl-6-oxo-1,6-dihydropyridin-3-yl)-N-(tetrahydrofuran-3-yl) imidazo[1,2-a]pyridine-3-sulfonamide] | 6.05 |  |
| Cc1cc(-c2ccc3ncc(C(=O)NC4CCCCC4)n3c2)cn(C)c1=O [Compound 12, N-cyclohexyl-6-(1,5-dimethyl-6-oxo-1,6-dihydropyridin-3-yl)imidazo[1,2-a] pyridine-3-carboxamide] | 6.04 |  |
| Cc1cc(-c2ccc3ncc(C(=O)N4CCOCC4)n3c2)cn(C)c1=O [Compound 11, 1,3-dimethyl-5-(3-(morpholine-4-carbonyl)imidazo[1,2-a]pyridin-6-yl) pyridin-2(1H)-one] | 5.56 |  |
| Cc1cc(-c2ccc3ncc(S(=O)(=O)NC4CCCC4)n3c2)cn(C)c1=O [Compound 16, N-cyclopentyl-6-(1,5-dimethyl-6-oxo-1,6-dihydropyridin-3-yl)imidazo[1,2-a]pyridine-3-sulfonamide] | 7.09 |  |
| Cc1cc(-c2ccc3ncc(S(=O)(=O)N4CCCC4)n3c2)cn(C)c1=O [Compound 19, 1,3-dimethyl-5-(3-(pyrrolidin-1-ylsulfonyl)imidazo[1,2-a]pyridin-6-yl)pyridin-2(1H)-one] | 6.77 |  |
| Cc1cc(-c2ccc3ncc(S(=O)(=O)N(C)C4CCOC4)n3c2)cn(C)c1=O (single isomer, unassigned) [Compound 48, 6-(1,5-dimethyl-6-oxo-1,6-dihydropyridin-3-yl)-N-methyl-N-(tetrahydrofuran-3-yl)imidazo[1,2-a]pyridine-3-sulfonamide] |  | 6.27 |
| Cc1cc(-c2ccc3ncc(S(=O)(=O)C4CCCC4)n3c2)cn(C)c1=O [Compound 49, 5-(3-(cyclopentylsulfonyl)imidazo[1,2-a]pyridin-6-yl)-1,3-dimethylpyridin-2(1H)-one] | 6.07 |  |
| Cc1cc(-c2ccc3ncc(C(=O)N4CCCCC4)n3c2)cn(C)c1=O [Compound 13, 1,3-dimethyl-5-(3-(piperidine-1-carbonyl)imidazo[1,2-a]pyridin-6-yl)pyridin-2(1H)-one] | 5.58 |  |

Next, values leading:

| pIC50 (Homo sapiens, MV4-11, 4 h) | pIC50 | SMILES |
| --- | --- | --- |
| 7.78 |  | Cc1cc(-c2ccc3ncc(NCC4CCCC4)n3c2)cn(C)c1=O [Compound 23, 5-[3-(cyclopentylmethylamino)imidazo[1,2-a]pyridin-6-yl]-1,3-dimethyl-pyridin-2-one] |
| 6.81 |  | Cc1nc2ccc(-c3cc(C)c(=O)n(C)c3)cn2c1Cc1ccncc1 [Compound 56, 1,3-dimethyl-5-[2-methyl-3-(4-pyridylmethyl)imidazo[1,2-a]pyridin-6-yl] pyridin-2-one] |
| 6.63 |  | Cc1cc(-c2ccc3ncc(COCC(F)(F)F)n3c2)cn(C)c1=O [Compound 34, 1,3-dimethyl-5-[3-(2,2,2-trifluoroethoxymethyl)imidazo[1,2-a]pyridin-6-yl]pyridin-2-one] |
| 7.60 |  | Cc1cc(-c2ccc3ncc(Nc4ccccc4)n3c2)cn(C)c1=O [Compound 30, 5-(3-anilinoimidazo[1,2-a]pyridin-6-yl)-1,3-dimethyl-pyridin-2-one] |
| 6.82 |  | Cc1nc2ccc(-c3cc(C)c(=O)n(C)c3)cn2c1Cc1ccccn1 [Compound 54, 1,3-dimethyl-5-[2-methyl-3-(2-pyridylmethyl)imidazo[1,2-a]pyridin-6-yl] pyridin-2-one] |
|  | 7.04 | COC(c1ccccc1)c1cnc2ccc(-c3cc(C)c(=O)n(C)c3)cn12 (centres unmarked) [Compound 6, 5-[3-[methoxy(phenyl)methyl]imidazo[1,2-a]pyridin-6-yl]-1,3-dimethyl-pyridin-2-one] |
| 7.07 |  | Cc1nc2ccc(-c3cc(C)c(=O)n(C)c3)cn2c1Cc1cccnc1 [Compound 55, 1,3-dimethyl-5-[2-methyl-3-(3-pyridylmethyl)imidazo[1,2-a]pyridin-6-yl] pyridin-2-one] |
| 7.49 |  | Cc1nc2ccc(-c3cc(C)c(=O)n(C)c3)cn2c1Cc1ccccc1 [Compound 24, 5-(3-benzyl-2-methyl-imidazo[1,2-a]pyridin-6-yl)-1,3-dimethyl-pyridin-2-one] |
| 5.63 |  | CO[C@H]1CCN(S(=O)(=O)c2cnc3ccc(-c4cc(C)c(=O)n(C)c4)cn23)C1 [Compound 50, (S)-5-(3-((3-methoxypyrrolidin-1-yl)sulfonyl)imidazo[1,2-a]pyridin-6-yl)-1,3-dimethylpyridin-2(1H)-one] |
| 6.21 |  | CO[C@@H]1CCN(S(=O)(=O)c2cnc3ccc(-c4cc(C)c(=O)n(C)c4)cn23)C1 [Compound 51, (R)-5-(3-((3-methoxypyrrolidin-1-yl)sulfonyl)imidazo [1,2-a]pyridin-6-yl)-1,3-dimethylpyridin-2(1H)-one] |
| 5.60 |  | CCNS(=O)(=O)c1cnc2ccc(-c3cc(C)c(=O)n(C)c3)cn12 [Compound 15, 6-(1,5-dimethyl-6-oxo-1,6-dihydropyridin-3-yl)-N-ethylimidazo[1,2-a] pyridine-3-sulfonamide] |
| 6.31 |  | Cc1cc(-c2ccc3ncc(CN4CCCCC4=O)n3c2)cn(C)c1=O [Compound 26, 1,3-dimethyl-5-[3-[(2-oxo-1-piperidyl)methyl]imidazo[1,2-a]pyridin-6-yl]pyridin-2-one] |
| 6.12 |  | Cc1cc(-c2ccc3ncc(S(=O)(=O)NC(C)C)n3c2)cn(C)c1=O [Compound 17, 6-(1,5-dimethyl-6-oxo-1,6-dihydropyridin-3-yl)-N-isopropylimidazo [1,2-a] pyridine-3-sulfonamide] |
| 8.01 |  | Cc1cc(-c2ccc3ncc(NC4CCCC4)n3c2)cn(C)c1=O [Compound 22, 5-[3-(cyclopentylamino)imidazo[1,2-a]pyridin-6-yl]-1,3-dimethyl-pyridin-2-one] |
| 7.03 |  | COC(c1ccccc1)c1cnc2ccc(-c3cc(C)c(=O)n(C)c3)cn12 (centres unmarked) [Compound 7, 5-[3-[methoxy(phenyl)methyl]imidazo[1,2-a]pyridin-6-yl]-1,3-dimethyl-pyridin-2-one] |
